Measurements from ChEMBL document CHEMBL1201862, “PubChem BioAssay data set” (2004).
Activity calls are given as the source filed them.

What was measured:
[1] = system: Streptococcus sp. 'group A'; test: Streptococcus pyogenes SK(-)GAS viability under kanamycin – luminescence, BacTiterGlo, confirmation, counter-screen for streptokinase expression inhibitor project, dose response (AID 1900); type: functional, organism-based
[2] = target: T1, Methionyl-tRNA synthetase, putative (Trypanosoma brucei brucei, UniProt Q38C91); type: functional, Trypanosoma brucei brucei strain 927/4 GUTat10.1
T1 sequence (Q38C91 whole entry): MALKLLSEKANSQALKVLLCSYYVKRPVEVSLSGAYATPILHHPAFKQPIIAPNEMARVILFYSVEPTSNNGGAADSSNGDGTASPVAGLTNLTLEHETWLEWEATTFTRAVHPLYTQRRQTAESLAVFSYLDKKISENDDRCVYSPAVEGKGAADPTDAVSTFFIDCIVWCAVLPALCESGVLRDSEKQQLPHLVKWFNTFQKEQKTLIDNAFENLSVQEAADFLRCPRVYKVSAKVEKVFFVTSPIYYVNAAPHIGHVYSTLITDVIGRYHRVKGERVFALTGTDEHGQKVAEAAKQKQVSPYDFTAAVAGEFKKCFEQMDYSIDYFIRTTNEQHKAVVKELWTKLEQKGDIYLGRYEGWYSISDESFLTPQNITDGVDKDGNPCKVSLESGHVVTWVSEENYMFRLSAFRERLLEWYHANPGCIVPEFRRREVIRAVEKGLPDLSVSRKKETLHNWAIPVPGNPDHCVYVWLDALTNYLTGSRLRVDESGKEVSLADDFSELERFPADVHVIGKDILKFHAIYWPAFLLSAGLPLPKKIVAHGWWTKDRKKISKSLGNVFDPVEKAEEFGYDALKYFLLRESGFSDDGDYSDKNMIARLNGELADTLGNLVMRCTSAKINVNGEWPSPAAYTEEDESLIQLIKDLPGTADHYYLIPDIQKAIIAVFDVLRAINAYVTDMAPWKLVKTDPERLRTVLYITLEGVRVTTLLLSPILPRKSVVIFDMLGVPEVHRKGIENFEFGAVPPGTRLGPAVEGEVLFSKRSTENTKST

[3] = target: T1, Methionyl-tRNA synthetase, putative; type: functional, Trypanosoma brucei brucei strain 927/4 GUTat10.1; remark: listed apart in the source
Streptococcus = test: GAS UMAA2166 growth inhibition – luminescence, BacTiterGlo, counter-screen for streptokinase expression inhibitor project, dose response (AID 1915); type: functional, organism-based;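 also: potency for reduction of bacterial viability or growth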
[4] = Counterscreen for inhibitors of Trypanosoma brucei methionyl tRNA synthetase (MetRS): Luminescence-based cell-based high throughput dose response assay to identify compounds that are cytotoxic to Jurkat human T lymphocyte cells.; type: functional
Streptokinase A = target: T2, Streptokinase A (Streptococcus pyogenes serotype M1, UniProt P10520); test: viability-normalized secreted streptokinase activity reduction – plasminogen activation absorbance, OD405, dose response (AID 1914); type: functional, Streptococcus pyogenes M1 GAS;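 also: secreted streptokinase activity via plasminogen activation per viability signal from cell pellet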
T2 sequence (P10520 whole entry): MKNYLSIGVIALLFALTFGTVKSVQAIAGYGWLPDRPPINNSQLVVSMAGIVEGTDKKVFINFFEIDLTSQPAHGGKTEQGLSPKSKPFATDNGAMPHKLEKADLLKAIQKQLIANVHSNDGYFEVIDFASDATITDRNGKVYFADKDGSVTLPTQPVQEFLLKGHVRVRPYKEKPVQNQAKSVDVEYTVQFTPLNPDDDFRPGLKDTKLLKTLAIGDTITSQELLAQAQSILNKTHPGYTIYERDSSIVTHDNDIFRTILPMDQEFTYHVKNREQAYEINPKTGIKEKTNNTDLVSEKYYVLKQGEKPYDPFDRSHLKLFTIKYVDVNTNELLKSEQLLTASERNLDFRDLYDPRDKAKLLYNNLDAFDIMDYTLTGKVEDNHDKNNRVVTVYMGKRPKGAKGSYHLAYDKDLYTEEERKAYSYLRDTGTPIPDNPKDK

[5] = target: Dual specificity protein phosphatase 3 (Homo sapiens, UniProt P51452); test: VHR phosphatase inhibition, dose response, selectivity assay for STEP inhibitor project, biochemical (AID 602374); type: functional; conditions: read-out: IC50_Mean
Chain of Dual specificity protein phosphatase 3 (P51452 whole entry, the tested form may be a part): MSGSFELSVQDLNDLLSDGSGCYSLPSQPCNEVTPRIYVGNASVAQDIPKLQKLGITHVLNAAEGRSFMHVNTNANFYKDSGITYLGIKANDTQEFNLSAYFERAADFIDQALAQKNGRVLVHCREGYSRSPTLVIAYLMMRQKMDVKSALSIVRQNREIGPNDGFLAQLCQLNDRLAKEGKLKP

[6] = target: T3, Carboxy-terminal domain RNA polymerase II polypeptide A small phosphatase 1 (Homo sapiens, UniProt Q9GZU7); test: CTDSP1 inhibitors, concentration-response, biochemical, absorbance readout, ultra-high-throughput screen actives (AID 540297); type: functional
T3 sequence (Q9GZU7 whole entry): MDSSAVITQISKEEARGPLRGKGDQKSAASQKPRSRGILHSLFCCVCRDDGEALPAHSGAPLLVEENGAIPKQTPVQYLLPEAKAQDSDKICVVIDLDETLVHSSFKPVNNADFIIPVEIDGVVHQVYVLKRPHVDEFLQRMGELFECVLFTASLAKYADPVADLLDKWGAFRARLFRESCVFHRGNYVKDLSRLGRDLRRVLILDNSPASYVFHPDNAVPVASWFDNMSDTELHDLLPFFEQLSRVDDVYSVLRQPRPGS

[7] = target: Tyrosine-protein phosphatase non-receptor type 11 (Homo sapiens, UniProt Q06124); test: PTPN11 enzyme inhibitors – biochemical, selectivity assay for STEP inhibitor project, dose response (AID 602367); type: functional; conditions: read-out: IC50_Mean
Chain of Tyrosine-protein phosphatase non-receptor type 11 (Q06124 whole entry): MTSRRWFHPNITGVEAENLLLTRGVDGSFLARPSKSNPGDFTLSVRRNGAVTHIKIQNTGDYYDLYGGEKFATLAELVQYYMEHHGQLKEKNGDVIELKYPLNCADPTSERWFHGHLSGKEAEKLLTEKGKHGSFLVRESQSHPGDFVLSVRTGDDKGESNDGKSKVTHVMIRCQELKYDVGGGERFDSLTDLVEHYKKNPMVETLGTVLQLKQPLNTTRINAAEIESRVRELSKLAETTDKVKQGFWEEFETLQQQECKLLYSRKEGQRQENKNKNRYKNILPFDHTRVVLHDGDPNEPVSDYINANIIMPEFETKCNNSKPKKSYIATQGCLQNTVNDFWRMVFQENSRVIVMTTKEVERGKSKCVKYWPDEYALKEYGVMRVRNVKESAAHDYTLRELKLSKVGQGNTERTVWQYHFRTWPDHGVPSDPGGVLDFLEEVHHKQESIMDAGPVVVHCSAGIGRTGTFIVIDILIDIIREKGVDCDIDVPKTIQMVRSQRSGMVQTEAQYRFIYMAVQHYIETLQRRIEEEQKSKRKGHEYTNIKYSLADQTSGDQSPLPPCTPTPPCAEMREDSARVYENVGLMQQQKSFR

Caspase-6 = target: T4, Caspase-6 (Homo sapiens, UniProt P55212); test: inhibition of CASP6 peptide cleavage – biochemical, VEID-R110 fluorescence, cherry-pick, dose response (AID 720632)
T4 sequence (P55212 whole entry): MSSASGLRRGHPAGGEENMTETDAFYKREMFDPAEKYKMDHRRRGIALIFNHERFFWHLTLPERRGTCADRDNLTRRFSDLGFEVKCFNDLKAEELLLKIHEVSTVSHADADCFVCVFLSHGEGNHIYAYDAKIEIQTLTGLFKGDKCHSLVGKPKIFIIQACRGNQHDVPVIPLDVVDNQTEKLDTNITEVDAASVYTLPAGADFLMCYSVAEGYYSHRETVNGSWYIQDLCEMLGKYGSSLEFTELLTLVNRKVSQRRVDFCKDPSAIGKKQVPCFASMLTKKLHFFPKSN

[8] = target: Tyrosine-protein phosphatase non-receptor type 5 (Homo sapiens, UniProt P54829); test: PTPN5 enzyme inhibition – biochemical, fluorescence intensity, uHTS hits, confirmation (AID 602372); type: functional; conditions: read-out: IC50_Mean
Chain of Tyrosine-protein phosphatase non-receptor type 5 (P54829 whole entry): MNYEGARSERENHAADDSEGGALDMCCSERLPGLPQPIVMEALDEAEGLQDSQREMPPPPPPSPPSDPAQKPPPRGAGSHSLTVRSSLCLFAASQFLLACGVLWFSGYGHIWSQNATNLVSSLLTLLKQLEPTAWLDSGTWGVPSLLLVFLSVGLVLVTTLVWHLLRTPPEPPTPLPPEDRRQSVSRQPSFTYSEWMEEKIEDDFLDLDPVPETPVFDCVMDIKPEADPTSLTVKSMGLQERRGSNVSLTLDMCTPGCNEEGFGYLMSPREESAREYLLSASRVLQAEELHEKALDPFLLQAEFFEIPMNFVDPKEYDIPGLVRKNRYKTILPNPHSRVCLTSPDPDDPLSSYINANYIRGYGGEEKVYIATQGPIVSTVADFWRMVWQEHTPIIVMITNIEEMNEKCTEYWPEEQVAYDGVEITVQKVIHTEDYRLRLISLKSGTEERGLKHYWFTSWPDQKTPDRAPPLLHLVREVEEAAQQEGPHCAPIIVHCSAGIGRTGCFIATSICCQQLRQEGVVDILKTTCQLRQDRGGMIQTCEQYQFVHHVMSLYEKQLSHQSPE

[9] = target: T5, Low molecular weight phosphotyrosine protein phosphatase (Homo sapiens, UniProt P24666); type: functional; conditions: read-out: IC50_Mean
T5 sequence (P24666 whole entry): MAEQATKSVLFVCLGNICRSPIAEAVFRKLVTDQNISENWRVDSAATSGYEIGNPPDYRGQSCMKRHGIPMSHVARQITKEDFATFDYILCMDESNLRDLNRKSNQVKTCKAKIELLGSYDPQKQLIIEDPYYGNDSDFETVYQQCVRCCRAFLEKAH

[10] = target: T5, Low molecular weight phosphotyrosine protein phosphatase; type: functional; conditions: read-out: IC50_Mean; remark: listed apart in the source
[11] = target: Photoreceptor-specific nuclear receptor (Homo sapiens, UniProt Q9Y5X4); type: functional, cell-based;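 also: CHO-S cells with Gal4-NCOR and VP16-NR2E3 two-hybrid luciferase reporter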
Chain of Photoreceptor-specific nuclear receptor (Q9Y5X4 whole entry, the tested form may be a part): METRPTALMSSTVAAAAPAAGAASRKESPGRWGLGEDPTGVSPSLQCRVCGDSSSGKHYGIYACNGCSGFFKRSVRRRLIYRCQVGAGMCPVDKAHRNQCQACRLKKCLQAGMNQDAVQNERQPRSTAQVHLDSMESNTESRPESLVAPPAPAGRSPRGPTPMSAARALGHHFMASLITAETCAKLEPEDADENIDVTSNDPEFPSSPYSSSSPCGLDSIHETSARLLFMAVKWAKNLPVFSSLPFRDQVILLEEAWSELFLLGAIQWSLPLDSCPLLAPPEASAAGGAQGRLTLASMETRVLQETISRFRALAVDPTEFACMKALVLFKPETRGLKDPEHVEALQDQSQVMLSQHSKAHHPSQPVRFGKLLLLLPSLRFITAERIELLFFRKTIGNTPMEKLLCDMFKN

**Q.** Which EC50 [1] does the source give for `COc1ccc(Cc2nnc(S)n2NC(=O)Nc2ccc(Cl)c(Cl)c2)cc1` here?
**A.** 3.39 µM (active)

**Q.** And the IC50 [2]?
**A.** 76.2 µM (inactive)

**Q.** What about the IC50 [3] of the same compound?
**A.** 17.7 µM (inactive)

**Q.** And the EC50 (Streptococcus)?
**A.** 63.3 µM (active)

**Q.** What about the IC50 [4] of the same compound?
**A.** 54.2 µM (inactive)

**Q.** What about the EC50 (Streptokinase A) of the same compound?
**A.** 20.3 µM (active)

**Q.** What does the source list for `CC(=O)N1CCOc2ccc(S(=O)(=O)NCc3ccc(F)cc3)cc21`?
**A.** IC50 [5]: 2.66 µM (active); IC50 [6]: 9.32 µM (active); IC50 [7]: 4.64 µM (active); AC50 (Caspase-6): 11.2 µM (active); IC50 [8]: 56.5 µM (inactive)

**Q.** Which IC50 [5] does the source give for `O=C(CCc1ccccc1)NNC(=O)c1ccc(NC(=O)c2ccccc2)cc1` here?
**A.** 3.9 µM (active)

**Q.** What about the IC50 [6] of the same compound?
**A.** 6.27 µM (active)

**Q.** What about the IC50 [7] of the same compound?
**A.** 3.98 µM (active)

**Q.** What about the IC50 [8] of the same compound?
**A.** 17.3 µM (active)

**Q.** What about the IC50 [9] of the same compound?
**A.** 24.9 µM (inactive)

**Q.** And the IC50 [10]?
**A.** 31.2 µM (inactive)

**Q.** For `O=C(NC(=O)N1CCN(c2cccc(Cl)c2)CC1)c1ccccc1`, which IC50 [11] is on record?
**A.** 4.75 µM (active)
